Experiments:
[1] = tested on: influenza HA vaccine (influenza virus A/PR/8/34); set-up: species or system BALB/c mice; settings: mouse, in vivo, po
rotavirus vaccine = assay type: in vivo, mice; settings: blood
measles-rubella vaccine = assay type: in vivo, mice; settings: blood; vaccine nasal twice at 3-week intervals; adjuvant oral before and after first inoculation
Mycoplasma = assay type: in vivo, mice
influenza HA vaccine = settings: mouse, in vivo
[2] = tested on: pertussis-diphtheria-tetanus combined vaccine; set-up: species or system mice; settings: mouse, in vivo, po

CCCCC[C@H](O)[C@H](O)/C=C/[C@H](O)CCCCCCCC(=O)O [9R,12R,13S-trihydroxy-10E-octadecenoic acid]
titer of anti-influenza virus IgA antibody in nasal irrigation liquids [1]: strongly enhanced
titer of anti-influenza virus IgG1 antibody in nasal irrigation liquids [1]: strongly enhanced

CCCCC[C@H](O)[C@@H](O)/C=C/[C@@H](O)CCCCCCCC(=O)OC [methyl ester derivative, methyl 9S,12S,13S-trihydroxy-10E-octadecenoate]
ELISA titer of antibody produced, vaccine inoculated orally (rotavirus vaccine; rotavirus vaccine inoculated orally): 0.27
ELISA titer of antibody produced, nasal vaccine drop (rotavirus vaccine; rotavirus vaccine nasal twice at 3-week intervals, adjuvant oral before and after first inoculation): 0.38

CCCCC[C@H](O)[C@H](O)/C=C/[C@@H](O)CCCCCCCC(=O)O [9S,12R,13S-trihydroxy-10E-octadecenoic acid]
titer of anti-influenza virus IgA antibody in nasal irrigation liquids [1]: strongly enhanced
titer of anti-influenza virus IgG1 antibody in nasal irrigation liquids [1]: strongly enhanced

CCCCC[C@H](O)[C@@H](O)/C=C/[C@@H](O)CCCCCCCC(=O)O [9S,12S,13S-trihydroxy-10E-octadecenoic acid]
ELISA titer of antibody produced for measles (measles-rubella vaccine): 0.30
ELISA titer of antibody produced for rubella (measles-rubella vaccine): 0.29
mice with lesions associated with Mycoplasma infection (Mycoplasma; mouse, in vivo, po): 3 of 10
average number of lesions (Mycoplasma; vaccine intranasal three times at 2-week intervals, adjuvant oral before and after first inoculation): 178
titer of anti-influenza vaccine IgE antibody in the bronchoalveolar irrigation liquid (influenza HA vaccine): significantly decreased
titer of anti-influenza virus IgA antibody in nasal irrigation liquids [1]: strongly enhanced
titer of anti-influenza virus IgA antibody in the sera [1]: significantly increased
titer of anti-influenza virus IgG1 antibody in nasal irrigation liquids [1]: strongly enhanced
titer of anti-influenza virus IgG1 antibody in the sera [1]: significantly increased
level of anti-DT-IgA antibody in the nasal irrigation liquid [2]: 11 ELISA units
level of anti-PT-IgA antibody in the nasal irrigation liquid [2]: 14 ELISA units
level of anti-TT-IgA antibody in the nasal irrigation liquid [2]: 11 ELISA units
level of anti-diphtheria toxoid (DT)-IgG antibody in the blood [2]: 70 ELISA units
level of anti-pertussis toxin (PT)-IgG antibody in the blood [2]: 442 ELISA units
level of anti-tetanus toxoid (TT)-IgG antibody in the blood [2]: 75 ELISA units

Source: patent US7560484B2 (priority 2000, dated 2009)
